According to US8236818B2, “Substituted imidazopyridine derivatives as melanocortin-4 receptor antagonists” (Santhera Pharmaceuticals (Schweiz) AG, priority 2007, dated 2012):

Key:
[1] = molecular target: T1, melanocortin-4 receptor (Homo sapiens, UniProt P32245); test: Functional assay (cAMP fluorescence polarization, membrane based, agonistic activity); format: biochemical; conditions: for Emax: 2 h, read-out: % activation functional assay; for EC50: agonistic activity, cAMP, HEK293 membrane preparations, read-out: hMC-4R functional assay EC50/μM
T1 construct: expressed in transfected cells; host or cells: HEK293 cells (membrane preparations)

[2] = molecular target: T1, melanocortin-4 receptor; test: Membrane binding assay (fluorescence polarization, competition with fluorescence labeled NDP-alpha-MSH); conditions: read-out: hMC-4R binding assay IC50/μM

T1 sequence (P32245 whole entry): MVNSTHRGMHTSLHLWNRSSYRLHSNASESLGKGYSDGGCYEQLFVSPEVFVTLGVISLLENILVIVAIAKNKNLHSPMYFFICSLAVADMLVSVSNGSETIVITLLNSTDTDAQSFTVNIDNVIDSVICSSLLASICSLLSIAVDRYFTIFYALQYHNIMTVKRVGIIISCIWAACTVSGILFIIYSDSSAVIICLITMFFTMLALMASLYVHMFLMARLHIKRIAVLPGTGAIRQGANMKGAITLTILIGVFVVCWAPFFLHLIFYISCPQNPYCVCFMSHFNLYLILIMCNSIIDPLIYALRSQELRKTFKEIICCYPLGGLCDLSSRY

Row | Structure (SMILES) | Emax [1] [%] | IC50 [2] [µM] | EC50 [1] [µM]
1 | COc1cccc(-c2nc3ccc(C(=O)N(CCC(C)C)CCC(C)C)cn3c2CCCN2CCN(C)CC2)c1 [Example 15] | 0 | 0.1 to 1 | 
2 | CC(C)CCN(CCC(C)C)C(=O)c1ccc2nc(-c3ccc4c(c3)OCO4)c(CCCN3CCCC3)n2c1 [Example 39] | 0 | < 0.1 | 
3 | CC(C)CCN(CCC(C)C)C(=O)c1ccc2nc(-c3ccc(Cl)cc3)c(CCCCN(C)C)n2c1 [Example 24] | 0 | > 1 | 
4 | COc1cccc(-c2nc3ccc(C(=O)N(CCC(C)C)CCC(C)C)cn3c2CCCN2CCOCC2)c1 [Example 12] | 0 | < 0.1 | 
5 | CC(C)CCN(CCC(C)C)C(=O)c1ccc2nc(-c3ncco3)c(CCCN3CCCC3)n2c1 [Example 47] | 0 | < 0.1 | 
6 | CC(C)CCN(CCC(C)C)C(=O)c1ccc2nc(-c3ccc(Cl)cc3)c(CCCN)n2c1 [Example 4] | 0 | 0.1 to 1 | 
7 | CC(C)CCN(CCC(C)C)C(=O)c1ccc2nc(-c3ccc4c(c3)OCCO4)c(CCCN3CCCCC3)n2c1 [Example 2] | 0 | < 0.1 | 
8 | CC(C)CCN(CCC(C)C)C(=O)c1ccc2nc(-c3ccc(C#N)cc3)c(CCCN3CCCC3)n2c1 [Example 17] | 0 | < 0.1 | 
9 | CCN(CC)CCCc1c(-c2cccc(OC)c2)nc2ccc(C(=O)N(CCC(C)C)CCC(C)C)cn12 [Example 8] | 0 | < 0.1 | 
10 | CC(C)CCN(CCC(C)C)C(=O)c1ccc2nc(-c3ccc(C#N)cc3)c(CCCN(C)C)n2c1 [Example 18] | 0 | 0.1 to 1 | 

Second part, the compound after the results:

Row | Emax [1] [%] | IC50 [2] [µM] | EC50 [1] [µM] | Structure (SMILES)
11 | 0 | 0.1 to 1 |  | CC(C)CCN(CCC(C)C)C(=O)c1ccc2nc(-c3ncco3)c(CCCN3CCC[C@@H]3CO)n2c1 [Example 70]
12 | -17 | 0.1 to 1 |  | O=C(c1ccc2nc(-c3ccc(=O)n(CCO)c3)c(CCCN3CCCC3)n2c1)N(CCC1CC1)CCC1CC1 [Example 107]
13 | -9 | < 0.1 |  | CC(C)CCN(CCC(C)C)C(=O)c1ccc2nc(-c3ccc(=O)n(CCO)c3)c(CCCN3CCCC3)n2c1 [Example 81]
14 | 0 | 0.1 to 1 |  | CCCN(CC1CC1)C(=O)c1ccc2nc(-c3ccc(C#N)cc3)c(CCCN3CCCC3)n2c1 [Example 141]
15 | -35 | 0.1 to 1 | 0.1 to 1 | CC(C)CCN(CCC(C)C)C(=O)c1ccc2nc(-c3ncco3)c(CCCN3CC[C@H](O)C3)n2c1 [Example 80]
16 | 0 | > 1 |  | CC(C)CCN(CCC(C)C)C(=O)c1ccc2nc(-c3cccc(Cl)c3)c(CN3CCC(N)CC3)n2c1 [Example 120]
17 | 1 | 0.1 to 1 |  | CC(C)CCN(CCC(C)C)C(=O)c1ccc2nc(-c3ncco3)c(CCCN3CCC3)n2c1 [Example 74]
18 | 0 | 0.1 to 1 |  | CC(C)CCN(CC(C)C)C(=O)c1ccc2nc(-c3ccc(C#N)cc3)c(CN3CCC(N)CC3)n2c1 [Example 150]
19 | -29 | 0.1 to 1 | 0.1 to 1 | CC(C)CCN(CCC(C)C)C(=O)c1ccc2nc(-c3ccc(=O)n(CCCO)c3)c(CCCN3CCCC3)n2c1 [Example 91]
20 | 0 | < 0.1 |  | CC(C)CCN(CCC(C)C)C(=O)c1ccc2nc(-c3ccncc3)c(CCCN3CCCC3)n2c1 [Example 56]
21 | 0 | > 1 |  | COc1ccc(-c2nc3ccc(C(=O)N(CCC(C)C)CCC(C)C)cn3c2CN2CCC(N(C)C)CC2)c(OC)c1 [Example 129]
22 | 0 | 0.1 to 1 |  | CC(C)CCN(CCC(C)C)C(=O)c1ccc2nc(-c3ccc(C#N)cc3)c(CN3CCC(N(C)C)CC3)n2c1 [Example 113]
23 | 0 | 0.1 to 1 |  | CC(C)CCN(CCC(C)C)C(=O)c1ccc2nc(-c3ccc(Cl)cc3)c(CN3C[C@H]4CNC[C@H]4C3)n2c1 [Example 127]
24 | -25 | 0.1 to 1 |  | CC1CCCN1CCCc1c(-c2ccc(=O)n(CCO)c2)nc2ccc(C(=O)N(CCC3CC3)CCC3CC3)cn12 (centres unmarked) [Example 111]
